Measured values taken from patent US20230278266A1, “MICRONEEDLE ARRAYS FORMED FROM POLYMER FILMS” (TransDerm, Inc., priority 2007, published 2023).

System: fresh human skin explant
Assay: Gentian violet delivery into excised human skin explant by loaded microneedle array
Assay type: in vitro ADME
Details: human skin explant from abdominoplasty, red fluorescence filters
Text: FIGS. 3A and 3B show cross-sections of excised human skin showing penetration by needles loaded with gentian violet. […] The sample was sectioned at an angle nearly parallel to the needle array geometry, allowing observation of multiple needles. The delivery device backing material is visible as a layer between the OCT and the skin sample. The left needle is itself cross-sectioned, showing the gentian violet solution loaded into the needle shaft. The middle needle appears to penetrate both the stratum corneum and the epidermis, with the needle tip in full contact with the dermis. A third needle (on the right) is visible but is out of the focal plane. […] The Gentian violet was detected using a fluorescent microscope under red fluorescence filters (excitation 546 nm; emission 580 nm). The skin section was stained with DAPI to allow nuclei visualization.
A microneedle array in the transdermal delivery device loaded with gentian violet solution was applied to fresh human skin explant (resulting from abdominoplasty procedure) and immediately placed into tissue freezing medium (OCT) and frozen to -28° C. The sample was sectioned at an angle nearly parallel to the needle array geometry, and multiple needles were observed (FIG. 3). In FIG. 3, the microneedle array transdermal delivery device backing material is visible as a layer between the OCT and the skin sample. […]

skin layer reached, fluorescence microscopy of skin section: delivered to human epidermis and dermis
SMILES: CN(C)c1ccc(C(=C2C=CC(=[N+](C)C)C=C2)c2ccc(N(C)C)cc2)cc1 [gentian violet]
